{"source": "paper PMC4481774", "about": "“Discovery of a non-cationic cell penetrating peptide derived from membrane-interacting human proteins and its potential as a protein delivery carrier” (Scientific Reports, 2015)", "key": {"HeLa cells [1]": {"test_system": "HeLa cells", "assay": "Cellular uptake of FITC-labeled CPPs by flow cytometry", "format": "cell-based, Human", "conditions": "for order of potency in intracellular translocation (dose-dependent uptake): 0, 0.5, 1, 2.5, 5 and 10 μM; for order of potency in intracellular translocation (dose-dependent uptake) / cellular uptake efficiency: average of three independent experiments; for cellular uptake efficiency: 1 μM peptide, flow cytometry MFI, serum-containing DMEM, 37 °C", "description": "For assessing the uptake of CPP candidates by HeLa cells, cells were seeded onto 6-well plates (1.0 × 10^6 cells/well). […] Cells were washed two times with phosphate-buffered saline (PBS), incubated in trypsin-EDTA solution (0.01% trypsin) at 37 °C for 10 min to digest extracellular proteins, washed two times with ice-cold PBS, and finally resuspended in 500 μL of ice-cold PBS for flow cytometry assays. For endocytosis inhibitor treatments, cells were pre-incubated with various inhibitors (50 μg heparin, 50 μM CPZ, 100 μM CQ, 1 mM MβCD, 30 μg dynasore, or 50 μM EIPA) in serum-containing medium for 30 min before AA3H (1 μM) was added. The sample for flow cytometry analysis was prepared as described above. For the analysis of peptide internalization, a GUAVA flow cytometry system (Merck Millipore, Darmstadt, Germany) with the FL-1 channel for measuring fluorescence in GuavaSoft 2.6 was used according to the manufacturer’s instructions."}, "HeLa cells [2]": {"test_system": "HeLa cells", "assay": "Intracellular uptake of CPPs in the presence or absence of serum, flow cytometry", "format": "cell-based, Human", "conditions": "peptide 1 μM, with or without 10% mouse serum, 4 h", "description": "Samples were prepared as described for cellular uptake above."}, "cells [3]": {"test_system": "cells", "conditions": "uptake kinetics of TAT; cited from earlier work"}, "HeLa cells [4]": {"test_system": "HeLa cells", "assay": "Cellular uptake mechanism of AA3H (heparin, low temperature, endocytosis inhibitors), flow cytometry", "format": "cell-based, Human", "description": "For assessing the uptake of CPP candidates by HeLa cells, cells were seeded onto 6-well plates (1.0 × 10^6 cells/well). After 24 h, cells were washed two times with serum-free DMEM and incubated with CPPs at indicated concentrations (0.1, 1, 10 μM) in serum-containing DMEM at 37 °C. Cells were washed two times with phosphate-buffered saline (PBS), incubated in trypsin-EDTA solution (0.01% trypsin) at 37 °C for 10 min to digest extracellular proteins, washed two times with ice-cold PBS, and finally resuspended in 500 μL of ice-cold PBS for flow cytometry assays. For endocytosis inhibitor treatments, cells were pre-incubated with various inhibitors (50 μg heparin, 50 μM CPZ, 100 μM CQ, 1 mM MβCD, 30 μg dynasore, or 50 μM EIPA) in serum-containing medium for 30 min before AA3H (1 μM) was added. The sample for flow cytometry analysis was prepared as described above. For the analysis of peptide internalization, a GUAVA flow cytometry system (Merck Millipore, Darmstadt, Germany) with the FL-1 channel for measuring fluorescence in GuavaSoft 2.6 was used according to the manufacturer’s instructions."}, "HeLa cells [5]": {"test_system": "HeLa cells", "assay": "Subcellular localization by confocal fluorescence microscopy", "format": "cell-based, Human", "conditions": "AA3H 1 μM, 4 h, organelle-specific staining", "description": "To visualize the cellular uptake of a peptide using confocal fluorescence microscopy, HeLa cells were seeded onto confocal bottom dish 35-mm plates (SPL, Gyeonggi-do, Korea) and incubated with AA3H (1 μM) for 4 h. Lysosomes and nuclei of AA3H-treated cells were stained with LysoTracker (Life Technologies, Carlsbad, CA, USA; 1 μg/mL for 30 min) and Hoechst (1 μg/mL for 5 min), respectively. For staining ER and Golgi, CellLight Reagents BacMam 2.0 (Life Technologies, Carlsbad, CA, USA) were used. Cells were cultured in confocal dishes for 24 h, transfected with red fluorescence protein (RFP) for 24 h, and treated with AA3H (1 μM) for 4 h. After washing two times with PBS, the intracellular fluorescence of HeLa cells was imaged using confocal laser scanning microscopy (LSM 700, Carl Zeiss, Jena, Germany)."}, "[6]": {"assay": "Liposome experiment (interaction of FITC-labeled AA3H with phospholipid liposomes)", "format": "binding", "conditions": "liposomes in HBS pH 7.5, 4 h at room temperature, flow cytometric analysis (Supplementary Fig. S3)", "description": "Liposome experiment. Phospholipids dissolved in chloroform (L-alpha-phosphatidylcholine: PC, L-alpha-phosphatidylserine: PS, and L-alpha-phosphatidylethanolamine: PE) were purchased 1 from Avanti Polar Lipids. Liposomes were prepared by following a reported procedure . After preparation of phospholipid mixtures with appropriate molar ratios (PC/PS: 8/2 and PC/PE/PS: 4/4/2), the mixtures were dried by removing the solvent. The residues were dissolved in HBS (20 mM HEPES/NaOH, pH 7.5, 100 mM NaCl, 0.02% (w/v) sodium azide) and vortexed to completely resuspend phospholipids. Then, the suspension was sonicated until to have clear solution. The prepared vesicles was incubated with AA3H-CPP (FITC labelled) for 4 h at room temperature and the mixture was centrifuged at 16,000×g for 10 min at 4°C before flow cytometric analysis.\nSupplementary Fig. S3. (A) Sizes of liposomes determined by dynamic light scattering. (B) Flow cytometric analysis on the interaction between FITC-labeled AA3H and liposomes. […]"}, "cells [7]": {"test_system": "cells", "assay": "Uptake kinetics (half-time of internalization)", "format": "cell-based", "conditions": "uptake kinetics of AA3H"}, "Raw 264.7 cells": {"test_system": "Raw 264.7 cells", "assay": "Immunogenicity assay (IL-6 release, ELISA)", "format": "cell-based, Murine", "conditions": "24 h; AA3H 10 μM or LPS 10 μg/mL; mouse IL-6 ELISA; average of three; non-treated control 20 pg/mL", "description": "Raw 264.7 cells were seeded into 24-well plates and cultured for 24 h. Cells were grown to 80% confluence and treated with lipopolysaccharides (LPS, 10 μg/mL) as a positive control. After incubation of AA3H peptide (10 μM) with cells for 24 h, supernatants were transferred to 1.5 mL tubes and centrifuged at 10,000 × g for 10 min at 4 °C. For the detection of interleukin-6 (IL-6) a mouse IL-6 ELISA kit (Thermo Scientific, Waltham, MA, USA) was used. Results from triplicate experiments were analyzed by Prism software (GraphPad, La Jolla, CA, USA). Data are presented as mean ± standard deviation (SD)."}}, "note": "Where two headings read alike, the source gives them in different places. Where no end group is shown, it is not given here. The star is where a group is joined. FITC = O=C1OC2(c3ccc(O)cc3Oc3cc(O)ccc32)c2ccc(NC(=S)*)cc21", "data": [{"substance": "{FITC}-MGNRHAKASS [AA13H, FITC-labeled N-terminus peptide of an annexin A isoform]", "values": [{"measurement": "order of potency in intracellular translocation (dose-dependent uptake)", "setting": "HeLa cells [1]; HeLa cells, flow cytometry", "value": "AA3H > AA5H > AA8H > AA13H > AA4H"}, {"measurement": "cellular uptake efficiency", "setting": "HeLa cells [1]; HeLa cells", "value": "significant cellular uptake efficiency"}]}, {"substance": "{FITC}-MATKGGTVKA [AA4H, FITC-labeled N-terminus peptide of an annexin A isoform]", "values": [{"measurement": "order of potency in intracellular translocation (dose-dependent uptake)", "setting": "HeLa cells [1]; HeLa cells, flow cytometry", "value": "AA3H > AA5H > AA8H > AA13H > AA4H"}, {"measurement": "cellular uptake efficiency", "setting": "HeLa cells [1]; HeLa cells", "value": "significant cellular uptake efficiency"}]}, {"substance": "{FITC}-MAWWKSWIEQ [AA8H, FITC-labeled N-terminus peptide of an annexin A isoform]", "values": [{"measurement": "order of potency in intracellular translocation (dose-dependent uptake)", "setting": "HeLa cells [1]; HeLa cells, flow cytometry", "value": "AA3H > AA5H > AA8H > AA13H > AA4H"}, {"measurement": "cellular uptake efficiency", "setting": "HeLa cells [1]; HeLa cells", "value": "significant cellular uptake efficiency"}]}, {"substance": "FITC-YGRKKRRQRRR [TAT47-58, widely used conventional CPP, TAT peptide of human immunodeficiency virus, FITC-labeled, reference compound]", "values": [{"measurement": "delivery efficiency in the presence of serum", "setting": "HeLa cells [2]", "value": "significantly lowered efficiency"}, {"measurement": "t0.5 (half-time of internalization)", "setting": "cells [3]", "value": 1, "unit": "min"}]}, {"substance": "{FITC}-MAQVLRGTVT [AA5H, FITC-labeled N-terminus peptide of an annexin A isoform]", "values": [{"measurement": "order of potency in intracellular translocation (dose-dependent uptake)", "setting": "HeLa cells [1]; HeLa cells, flow cytometry", "value": "AA3H > AA5H > AA8H > AA13H > AA4H"}, {"measurement": "cellular uptake efficiency", "setting": "HeLa cells [1]; HeLa cells", "value": "significant cellular uptake efficiency"}]}, {"substance": "{FITC}-MASIWVGHRG [AA3H]", "values": [{"measurement": "order of potency in intracellular translocation (dose-dependent uptake)", "setting": "HeLa cells [1]; HeLa cells, flow cytometry", "value": "AA3H > AA5H > AA8H > AA13H > AA4H"}, {"measurement": "cellular uptake efficiency", "setting": "HeLa cells [1]; HeLa cells", "value": "significant cellular uptake efficiency"}, {"measurement": "cellular uptake compared with the fully cationic R9 peptide", "setting": "HeLa cells [1]; HeLa cells (Supplementary Fig. S1A)", "value": "much lower cellular uptake"}, {"measurement": "uptake efficiency compared with TAT", "setting": "HeLa cells [1]; HeLa cells, flow cytometry (Fig. 2C)", "value": "delivered into the cells better than TAT"}, {"measurement": "decrease of intracellular delivery after heparin sulfate", "setting": "HeLa cells [4]; 50 μg/mL heparin sulfate 30 min pre-treatment, then AA3H 4 h, relative to delivery without heparin, average of three", "value": 45, "unit": "%"}, {"measurement": "cellular uptake at 4 °C lower than at 37 °C", "setting": "HeLa cells [4]; 4 °C for 2 h vs 37 °C control, flow cytometry", "value": "approximately 66%"}, {"measurement": "decrease of uptake with dynasore", "setting": "HeLa cells [4]; 30-min pre-treatment, 30 μg dynasore, AA3H 1 μM", "value": 57, "unit": "%"}, {"measurement": "decrease in uptake with chlorpromazine (CPZ)", "setting": "HeLa cells [4]; 30-min pre-treatment, 50 μM CPZ, AA3H 1 μM, serum-containing medium", "value": 23.5, "unit": "%"}, {"measurement": "effect of EIPA (macropinocytosis inhibitor) on peptide delivery", "setting": "HeLa cells [4]; 30-min pre-treatment, 50 μM EIPA, AA3H 1 μM", "value": "significant inhibition of peptide delivery"}, {"measurement": "increase in mean fluorescence intensity with chloroquine (CQ)", "setting": "HeLa cells [4]; 30-min pre-treatment, 100 μM CQ, AA3H 1 μM, ascribed to dequenching of fluorescein, not to uptake", "value": 20.5, "unit": "%"}, {"measurement": "reduction of uptake with methyl-β-cyclodextrin (MβCD)", "setting": "HeLa cells [4]; 30-min pre-treatment, 1 mM MβCD, AA3H 1 μM", "value": 32, "unit": "%"}, {"measurement": "reduction of uptake with nystatin (NYS)", "setting": "HeLa cells [4]; 30-min pre-treatment, AA3H 1 μM", "value": 15, "unit": "%"}, {"measurement": "subcellular localization", "setting": "HeLa cells [5]", "value": "localized in the cytoplasm but not in the nucleus"}, {"measurement": "delivery efficiency in the presence of serum", "setting": "HeLa cells [2]", "value": "not considerably affected"}, {"measurement": "binding to phospholipids known to interact with annexin III", "setting": "[6]", "value": "found to also bind AA3H"}, {"measurement": "t0.5 (half-time of internalization)", "setting": "cells [7]", "value": "~ 2 h"}]}, {"substance": "{FITC}-RRRQQQQQQRRR [PLP, protein linking peptide containing multiple arginine residues, FITC-labeled]", "values": [{"measurement": "cellular uptake of PLP-conjugated CPPs", "setting": "HeLa cells [1]; flow cytometry, fluorescence label of the peptide (Fig. 8B)", "value": "not as high as with AA3H conjugation"}]}, {"substance": "lipopolysaccharide [LPS]", "values": [{"measurement": "IL-6 released into the culture medium", "setting": "Raw 264.7 cells", "value": 373, "unit": "pg/mL"}]}]}
